≈ marks a conversion by molar mass, not a printed value. Entries after “also recorded” stand apart in the source; their conditions may differ.
Assays:
[1] = test system: human LINE-1 retrotransposon; assay: EGFP cell culture L1 retrotransposition assay in HeLa cells; format: cell-based; conditions: 7 days after transfection, flow cytometry
Procedure: These findings pave way for the rational re-design and improvement of nucleoside analogs as novel therapeutics. The enhanced green fluorescent protein (EGFP) cell culture L1 retrotransposition assay was performed in HeLa cells. […] Transfected cells were selected in puromycin. 7 days after transfection, cells that underwent retrotransposition (EGFP-positive) were assayed by flow cytometry. Cells were gated based on background fluorescence of plasmid JM111, which has two point mutations in L1-ORF1 that abolish retrotransposition. Data are normalized with RPS set to 1.

[2] = test system: GFP-expressing lentivirus; assay: GFP-expressing lentivirus transduction/replication assay in HeLa cells; format: cell-based; conditions: for lentivirus replication (GFP-positive cells per field): 10 μM, 72 hours, MOI 20
Procedure: All drugs were added at a concentration of 10 μM. Cells were imaged for GFP expression 72 hours after addition of lentivirus. GFP-positive cells per field of view were recorded. n=4-11, error bars S.E.M. Reverse transcription of lentivirus is essential for GFP expression; modified NRTIs should not block reverse transcriptase, whereas NRTIs are known to block reverse transcriptase.
The present disclosure further provides the results of additional experiments in FIG. 21-FIG. 23.

human P2X7 receptor = biological target: T1, human P2X7 receptor (Homo sapiens, UniProt Q99572); conditions: HEK293 stably expressing human P2X7; concentration not given
T1 sequence (Q99572 1-595): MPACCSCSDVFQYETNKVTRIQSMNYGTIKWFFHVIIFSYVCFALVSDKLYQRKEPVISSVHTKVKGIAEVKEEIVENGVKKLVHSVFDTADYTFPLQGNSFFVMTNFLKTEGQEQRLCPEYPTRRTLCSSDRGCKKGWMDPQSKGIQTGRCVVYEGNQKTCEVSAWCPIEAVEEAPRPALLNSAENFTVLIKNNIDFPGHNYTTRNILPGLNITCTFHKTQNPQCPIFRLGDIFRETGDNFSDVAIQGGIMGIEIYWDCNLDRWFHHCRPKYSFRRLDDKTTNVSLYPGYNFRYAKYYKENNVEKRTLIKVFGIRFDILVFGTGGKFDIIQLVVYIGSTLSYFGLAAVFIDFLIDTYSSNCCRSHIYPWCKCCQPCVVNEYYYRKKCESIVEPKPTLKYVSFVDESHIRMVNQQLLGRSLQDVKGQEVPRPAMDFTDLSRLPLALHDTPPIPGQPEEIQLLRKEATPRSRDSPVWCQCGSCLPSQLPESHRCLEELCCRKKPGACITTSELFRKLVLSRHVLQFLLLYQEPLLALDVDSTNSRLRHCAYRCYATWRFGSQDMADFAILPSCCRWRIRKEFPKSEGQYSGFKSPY

IL-1 beta = assay: LPS/ATP-induced IL-1 beta activation in Raji TK− and TK+ cells, western blot; format: cell-based
Text: (§1) To determine whether LPS/ATP-induced inflammasome activation can be inhibited without RT inhibition, the present inventors utilized thymidine kinase-deficient (Raji/TK^−) and -expressing (Raji/TK^+) cells (Balzarini et al., 1989).

Caspase-1 [3] = assay: iGLuc luminescence assay of ATP-induced Caspase-1 activation in J774 iGLuc cells; format: cell-based, mouse; conditions: for Caspase-1 cleavage (luminescence): ATP 5 mM, N=3
Procedure: Caspase-1 is the enzyme at the core of the inflammasome complex and is an important danger response signal and mediator of RPE cell death in AMD. […] Importantly, there was some difference between individual compounds in terms of the dose response curve, emphasizing the need to test each compound (with unique R group(s)) individually.
To obtain the data set forth in FIGS. 64-73, an iGLuc assay was conducted (modified from Bartok et al. iGLuc: a luciferase-based inflammasome and protease activity reporter. Nature Methods 2013; 10(2):147-54). Briefly, 100,000 iGLuc cells per well were plated in a 96 well plate overnight. The next morning, media is aspirated from the plate and replaced with 75 μL of serum free DMEM with drugs (NRTIs or modified NRTIs) for 30 min. After 30 minutes of drug exposure, 20 mM ATP (25 μL) is added for a final concentration of 5 mM. 50 μL of media from each well is collected and 50 μL of coelenterazine 4.4 μM is added to each sample, and luminescence is read immediately.

Caspase-1 [4] = assay: Alu RNA-induced Caspase-1 activation, western blot, primary human RPE cells; format: cell-based; conditions: for Alu RNA-induced Caspase-1 activation/cleavage: concentration not given
Text: The bottom row in FIG. 5 is a vinculin loading control.

wild-type mice [5] = assay: pAlu-induced RPE degeneration, mouse model of dry AMD; format: in vivo
Procedure: Mouse studies were conducted to study treatment with NRTIs or derivatives.

wild-type mice [6] = assay: Laser-induced choroidal neovascularization (CNV; wet AMD) in wild-type mice; conditions: N=16
[7] = test system: Raji TK^+ and Raji TK^− cells; assay: Phosphorylation of AZT to AZT-triphosphate in Raji TK+ / TK− cells, LC-MS; format: in vitro ADME
Text: as §1
FIG. 50 is a standard curve of AZT-TP standards (black circle). […] FIG. 50 is representative of two experiments.

[8] = LogP, partition coefficient in 1-octanol; format: physicochemical; conditions: 1-octanol partition
mtDNA = assay: Relative quantity of mtDNA, quantitative PCR, primary human RPE cells; conditions: 50 μM; four days; relative to DMSO
Caspase-1 [9] = assay: Iron (III) ammonium citrate-induced Caspase-1 activation, western blot, primary human RPE cells; format: cell-based; conditions: 25 μM, Fe(III) ammonium citrate (100 μM)
Text: Caspase-1 activation (p20 subunit) in primary human retinal pigment epithelium (RPE) cells in the presence of iron (III) ammonium citrate was studied.
Caspase-1 activation (p10 subunit) in primary human RPE cells in the presence of iron (III) ammonium citrate was studied.
Alu RNA is a toxic endogenous retroelement that accumulates in and causes death of the RPE in patients with dry AMD. […] FAC activates Caspase-1 via an Alu RNA intermediate, and induces NLRP3-dependent RPE degeneration (Gelfand et al. Cell Reports 2015). Fe(III) ammonium citrate (100 μM)-induced Caspase-1 activation in primary human RPE cells, monitored by western blotting, is reduced by TM-3TC (25 μM), d4T-ene (25 μM), 2Me-d4T (25 μM), Me-AZT (25-100 μM), and 2Me-AZT (25 μM). N=3-4.

mice [10] = assay: Amyloid beta-induced RPE degeneration in mice; format: in vivo, mouse; conditions: intraperitoneal 25 mg/kg days 1 to 6; read day 7
mice [11] = assay: Iron-induced RPE degeneration in mice; format: in vivo, mouse; conditions: intraperitoneal 25 mg/kg days 1 to 6; read day 7
Solubility in water = format: physicochemical; conditions: aqueous buffer; Water pH 7.2 at 37° C.
wild-type mice [12] = assay: Poly IC-induced RPE degeneration in mice; format: in vivo, mouse; conditions: intravitreous; measured 7 days after poly IC
JR5558 mice = assay: Spontaneous CNV in JR5558 mice, fluorescein angiography dye leakage; format: in vivo, mouse
Text: JR5558 mice develop spontaneous choroidal neovascularization (CNV) and are an animal model of wet/neovascular age-related macular degeneration (AMD). The activity of the CNV lesions can be monitored using fluorescein angiography to assess the degree of dye leakage from the lesions, as is done in humans with this disease. FIGS. 81 and 82 are representative images from two JR5558 mice (N=8). The first and third row of FIGS. 81 and 82 show time dependent dye leakage from pre-existing CNV lesions in the left eye (first row) and right eye (third row) of a first and second JR5558 mouse, respectively.

wild-type mice [13] = assay: Alu RNA-induced RPE degeneration, mouse model of dry AMD
[14] = intraperitoneal 25 mg/kg twice daily

Row | SMILES | L1 retrotransposition (EGFP-positive cells) [1] | lentivirus replication (GFP-positive cells per field) [2] | Caspase-1 cleavage (luminescence) (Caspase-1 [3]; drug 1 nM-100 μM) | Alu RNA-induced Caspase-1 activation/cleavage (Caspase-1 [4]) | logP [8] | relative quantity of mtDNA (mtDNA depletion) (mtDNA) | pAlu-induced RPE degeneration (wild-type mice [5]; [14]) | Iron-induced RPE degeneration (mice [11]) | solubility (Solubility in water) [mg/mL] | poly IC-induced RPE degeneration (wild-type mice [12]) | other results
1 | Cc1cn([C@H]2C[C@H](N=[N+]=[N-])[C@@H](CO)O2)c(=O)[nH]c1=O [AZT, 3′-azido-2′,3′-dideoxythymidine, reference compound] | blocked L1 retrotransposition | blocked lentivirus GFP expression | reduces Caspase-1 cleavage in a dose-dependent fashion | block Caspase-1 cleavage | -0.41 |  |  |  |  |  | P2X7-dependent YO-PRO-1 uptake induced by bzATP (human P2X7 receptor): inhibited P2X7-dependent uptake; IL-1 beta activation by LPS/ATP (IL-1 beta; Raji TK+ cells): blocks IL-1 beta activation; IL-1 beta activation by LPS/ATP (IL-1 beta; Raji TK− cells): blocks IL-1 beta activation; Alu RNA-induced Caspase-1 maturation (Caspase-1 [4]; 50-100 uM, 24 hours after Alu administration): blocked; pAlu-induced RPE degeneration (wild-type mice [5]; intraperitoneal administration, dose not stated): blocked RPE degeneration; laser injury-induced CNV volume (wild-type mice [6]; intravitreous 0.55 nmol): reduced laser injury-induced CNV volume; formation of AZT-triphosphate (AZT-TP) ([7]; Raji TK+ cells): produced AZT-TP; formation of AZT-triphosphate (AZT-TP) ([7]; Raji TK− cells): not detectable
2 | COCC1C=C[C@H](n2cc(C)c(=O)n(C)c2=O)O1 (stereo partly drawn) [Kamuvudine 2Me-d4T, 1-[(2R)-5-(methoxymethyl)-2,5-dihydrofuran-2-yl]-3,5-dimethyl-1,2,3,4-tetrahydropyrimidine-2,4-dione] | no effect on L1 activity | do not block lentivirus replication |  |  | 0.63 | do not exhibit mtDNA depletion | restored to healthy RPE morphology/intercellular junctions | blocked the development of RPE degeneration | 10 (≈ 39.6 mM) | blocks this degeneration | iron-induced Caspase-1 activation (Caspase-1 [9]): reduced; iron-induced Caspase-1 activation (Caspase-1 [9]; listed as 2me-d4T): blocked iron-induced Caspase-1 activation; Amyloid beta-induced RPE degeneration (mice [10]): blocked the development of RPE degeneration
3 | COC[C@@H]1O[C@H](n2ccc(N(C)C)nc2=O)CS1 [Kamuvudine 3Me-3TC, 4-(dimethylamino)-1-[(2R,5S)-2-(methoxymethyl)-1,3-oxathiolan-5-yl]-1,2-dihydropyrimidin-2-one] | no effect on L1 activity | do not block lentivirus replication | reduces Caspase-1 cleavage in a dose-dependent fashion |  | 0.09 | do not reduce mtDNA | protects against RPE degeneration |  | 7 (≈ 25.8 mM) |  | CNV lesion leakage compared to 3TC (JR5558 mice; 62.5 ng vs 125 ng 3TC): greater reduction in CNV lesion leakage; activity (dye leakage) of pre-existing CNV lesions (JR5558 mice; single intravitreous 62.5 ng, 3 days after administration): suppress the activity of pre-existing CNV lesions; iron-induced Caspase-1 activation (Caspase-1 [9]; listed as TM-3TC): blocked iron-induced Caspase-1 activation; also recorded: reduced; Alu RNA induced Caspase-1 activation (Caspase-1 [4]; 25-100 μM (25 and 100 μM), listed as TM-3TC): blocked Alu-induced Caspase-1 activation; also recorded: reduced; Alu RNA-induced RPE degeneration (wild-type mice [13]; intraperitoneal 25 mg/kg, twice daily for 6 days): protects against RPE degeneration
4 | COC[C@@H]1C=C[C@H](n2cc(C)c(=O)[nH]c2=O)O1 [Me-d4T, 1-[(2R,5S)-5-(methoxymethyl)-2,5-dihydrofuran-2-yl]-5-methyl-1,2,3,4-tetrahydropyrimidine-2,4-dione] | no effect on L1 activity | do not block lentivirus replication |  | blocks Caspase-1 activation | 0.41 | do not exhibit mtDNA depletion |  | blocked the development of RPE degeneration | 30 (≈ 126 mM) | blocks this degeneration | replication of GFP-expressing lentivirus ([2]; FIG. 22, concentration not given): does not block lentivirus replication; Caspase-1 cleavage (luminescence) (Caspase-1 [3]; drug 100 μM): reduces Caspase-1 cleavage in a dose-dependent fashion; reduction of inflammasome activation (Caspase-1 [3]; ATP (5 mM), mouse J774 iGLuc cells, FIGS. 70-73): about 70%; choroidal neovascularization (CNV) volume (wild-type mice [6]; intravitreous 0.14 nmol, day 7): reduced choroidal neovascularization (CNV) volume; Alu-induced RPE degeneration (wild-type mice [13]; intraperitoneal injection, dose not stated): prevents Alu-induced RPE degeneration

From patent US11219623B2, “Inflammasome inhibition for the treatment of Parkinson's disease, Alzheimer's disease and multiple sclerosis” (University of Kentucky Research Foundation, priority 2015, dated 2022)
